Experimental data: patent US20230048132A1, “CYCLIN-DEPENDENT KINASE INHIBITORS” (SPV THERAPEUTICS INC., priority 2018, published 2023)
Where two headings read alike, the source gives them in different places.

Legend:
CDK4-CYCLIND1 = CDK4-CYCLIND1 (Homo sapiens, UniProt P11802); assay: CDK inhibition assay (microfluidic LabChip, IC50 format)
CDK6-CYCLIND3 = target: T1, CDK6-CYCLIND3 (Homo sapiens, UniProt Q00534); assay: as above; type: biochemical; conditions: Table 4b
T1 construct: purchased Carna

[1] = CDK4 IC50, Table 4b, upper part
[2] = upper part, read-out: CDK6 IC50
[3] = CDK4 CyclinD1 IC50, Table 4b, lower part, a second value in parentheses for some compounds
[4] = lower part, read-out: CDK6 CyclinD3 IC50

CDK4-CYCLIND1, sequence (P11802 whole entry): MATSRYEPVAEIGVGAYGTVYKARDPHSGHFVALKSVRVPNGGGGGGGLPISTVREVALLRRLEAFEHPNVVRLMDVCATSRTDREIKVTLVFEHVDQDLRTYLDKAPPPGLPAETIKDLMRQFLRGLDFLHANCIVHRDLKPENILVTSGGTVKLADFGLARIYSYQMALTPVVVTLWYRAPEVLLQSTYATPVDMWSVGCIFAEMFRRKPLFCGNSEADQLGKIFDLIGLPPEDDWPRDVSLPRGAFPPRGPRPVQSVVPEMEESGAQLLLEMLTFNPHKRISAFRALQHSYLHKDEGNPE
CDK4-CYCLIND1, sequence (P24385 whole entry partner): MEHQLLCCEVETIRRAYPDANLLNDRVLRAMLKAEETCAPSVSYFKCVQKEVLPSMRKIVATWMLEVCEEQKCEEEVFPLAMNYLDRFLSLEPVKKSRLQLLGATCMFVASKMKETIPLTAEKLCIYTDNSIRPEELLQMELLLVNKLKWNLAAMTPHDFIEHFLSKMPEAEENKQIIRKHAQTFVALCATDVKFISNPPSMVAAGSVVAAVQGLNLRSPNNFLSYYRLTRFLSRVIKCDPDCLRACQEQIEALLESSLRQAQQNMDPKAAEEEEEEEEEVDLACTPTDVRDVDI
T1 sequence (Q00534 whole entry): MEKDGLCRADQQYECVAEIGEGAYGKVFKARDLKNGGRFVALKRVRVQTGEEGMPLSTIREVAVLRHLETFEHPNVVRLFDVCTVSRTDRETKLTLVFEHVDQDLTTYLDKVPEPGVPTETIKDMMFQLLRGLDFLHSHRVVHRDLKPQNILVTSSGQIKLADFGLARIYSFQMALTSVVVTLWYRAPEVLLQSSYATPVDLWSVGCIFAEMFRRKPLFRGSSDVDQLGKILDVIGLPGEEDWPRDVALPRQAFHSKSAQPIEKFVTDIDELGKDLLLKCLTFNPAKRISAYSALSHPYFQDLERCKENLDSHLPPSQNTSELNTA
T1 sequence (P30281 whole entry partner): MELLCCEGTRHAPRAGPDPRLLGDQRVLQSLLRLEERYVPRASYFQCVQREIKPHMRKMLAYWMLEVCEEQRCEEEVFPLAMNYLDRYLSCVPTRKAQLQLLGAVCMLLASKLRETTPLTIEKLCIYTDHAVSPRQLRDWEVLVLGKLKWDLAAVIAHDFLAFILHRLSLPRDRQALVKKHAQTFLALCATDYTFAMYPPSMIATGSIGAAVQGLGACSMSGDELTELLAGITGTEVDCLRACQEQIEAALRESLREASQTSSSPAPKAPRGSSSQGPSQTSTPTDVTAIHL

IC50 (CDK4-CYCLIND1; [1]) | IC50 (CDK6-CYCLIND3; [2]) | IC50 (CDK4-CYCLIND1; [3]) | IC50 (CDK6-CYCLIND3; [4]) | SMILES
7.01 nM | 14.4 nM |  |  | O=C1NCCC12Cc1cnc(Nc3ccc(OCCN4CCCCC4)nc3)nc1N(C1CCCC1)C2=O (stereo not shown) [Example D35]
1.96 nM | 4.53 nM |  |  | Cc1cc(Nc2ncc3c(n2)N(C2CCCC2)C(=O)C2(CCNC2=O)C3)ccc1N1CCN(C(C)C)CC1 (stereo not shown) [Example D36, 8-cyclopentyl-2-((4-(4-isopropylpiperazin-1-yl)-3-methylphenyl)amino)-5,8-dihydro-7H-spiro[pyrido[2,3-d]pyrimidine-6,3′-pyrrolidine]-2′,7-dione]
2.12 nM | 4.93 nM |  |  | O=C1NCCC12Cc1cnc(Nc3ccc(N4CC5(CNC5)C4)cc3)nc1N(C1CCCC1)C2=O (stereo not shown) [Example D40, 2-((4-(2,6-diazaspiro[3.3]heptan-2-yl)phenyl)amino)-8-cyclopentyl-5,8-dihydro-7H-spiro[pyrido[2,3-d]pyrimidine-6,3′-pyrrolidine]-2′,7-dione]
4.61 nM | 8.79 nM |  |  | O=C1NCCC12Cc1cnc(Nc3ccc(N4CC5(CNC5)C4)cn3)nc1N(C1CCCC1)C2=O (stereo not shown) [Example D41, 2-((5-(2,6-diazaspiro[3.3]heptan-2-yl)pyridin-2-yl)amino)-8-cyclopentyl-5,8-dihydro-7H-spiro[pyrido[2,3-d]pyrimidine-6,3′-pyrrolidine]-2′,7-dione]
2.72 nM | 6.19 nM |  |  | O=C1NCCC12Cc1cnc(Nc3ccc(N4CC5(CNC5)C4)nc3)nc1N(C1CCCC1)C2=O (stereo not shown) [Example D42, 2-((6-(2,6-diazaspiro[3.3]heptan-2-yl)pyridin-3-yl)amino)-8-cyclopentyl-5,8-dihydro-7H-spiro[pyrido[2,3-d]pyrimidine-6,3′-pyrrolidine]-2′,7-dione]
2.42 nM | 4.95 nM |  |  | O=C1NCCC12Cc1cnc(Nc3ccc(N4CC5(CNC5)C4)c(F)c3)nc1N(C1CCCC1)C2=O (stereo not shown) [Example D43]
12 nM | 24.6 nM |  |  | CN(C)[C@H]1CCN(c2ccc(Nc3ncc4c(n3)N(C3CCCC3)C(=O)C3(CCNC3=O)C4)cc2)C1 (stereo partly drawn) [Example D44, 8-cyclopentyl-2-((4-((S)-3-(dimethylamino)pyrrolidin-1-yl)phenyl)amino)-5,8-dihydro-7H-spiro[pyrido[2,3-d]pyrimidine-6,3′-pyrrolidine]-2′,7-dione]
2.68 nM | 5.46 nM |  |  | CN(C)[C@H]1CCN(c2ccc(Nc3ncc4c(n3)N(C3CCCC3)C(=O)C3(CCNC3=O)C4)cc2F)C1 (stereo partly drawn) [Example D45, 8-cyclopentyl-2-((4-((S)-3-(dimethylamino)pyrrolidin-1-yl)-3-fluorophenyl)amino)-5,8-dihydro-7H-spiro[pyrido[2,3-d]pyrimidine-6,3′-pyrrolidine]-2′,7-dione]
3.23 nM | 8.36 nM |  |  | CN(C)[C@H]1CCN(C(=O)c2ccc(Nc3ncc4c(n3)N(C3CCCC3)C(=O)C3(CCNC3=O)C4)cc2)C1 (stereo partly drawn) [Example D46, 8-cyclopentyl-2-((4-((S)-3-(dimethylamino)pyrrolidine-1-carbonyl)phenyl)amino)-5,8-dihydro-7H-spiro[pyrido[2,3-d]pyrimidine-6,3′-pyrrolidine]-2′,7-dione]
3.37 nM | 10.6 nM |  |  | CN(C)[C@H]1CCN(C(=O)c2ccc(Nc3ncc4c(n3)N(C3CCCC3)C(=O)C3(CCNC3=O)C4)cn2)C1 (stereo partly drawn) [Example D47, 8-cyclopentyl-2-((6-((S)-3-(dimethylamino)pyrrolidine-1-carbonyl)pyridin-3-yl)amino)-5,8-dihydro-7H-spiro[pyrido[2,3-d]pyrimidine-6,3′-pyrrolidine]-2′,7-dione]
1.95 nM | 5.53 nM |  |  | CN(C)[C@H]1CCN(C(=O)c2ccc(Nc3ncc4c(n3)N(C3CCCC3)C(=O)C3(CCNC3=O)C4)cc2F)C1 (stereo partly drawn) [Example D48, 8-cyclopentyl-2-((4-((S)-3-(dimethylamino)pyrrolidine-1-carbonyl)-3-fluorophenyl)amino)-5,8-dihydro-7H-spiro[pyrido[2,3-d]pyrimidine-6,3′-pyrrolidine]-2′,7-dione]
 |  | 1.75 nM | 2.8 nM | CC(C)N1CCN(c2ccc(Nc3ncc4c(n3)N(C3CCCC3)C(=O)[C@]3(CCNC3=O)C4)cn2)CC1 [Example D151, (S)-8-cyclopentyl-2-((6-(4-isopropylpiperazin-1-yl)pyridin-3-yl)amino)-5,8-dihydro-7H-spiro[pyrido[2,3-d]pyrimidine-6,3′-pyrrolidine]-2′,7-dione]
 |  | 6.27 nM | 11.2 nM | O=C1NCC[C@@]12Cc1cnc(Nc3ccc(OCCN4CCCC4)nc3)nc1N(C1CCCC1)C2=O [Example D191, (S)-8-cyclopentyl-2-((6-(2-(pyrrolidin-1-yl)ethoxy)pyridin-3-yl)amino)-5,8-dihydro-7H-spiro[pyrido[2,3-d]pyrimidine-6,3′-pyrrolidine]-2′,7-dione]
 |  | 4.58 nM | 8.52 nM | O=C1NCC[C@@]12Cc1cnc(Nc3ccc(OCCN4CCCCC4)nc3)nc1N(C1CCCC1)C2=O [Example D192, (S)-8-cyclopentyl-2-((6-(2-(piperidin-1-yl)ethoxy)pyridin-3-yl)amino)-5,8-dihydro-7H-spiro[pyrido[2,3-d]pyrimidine-6,3′-pyrrolidine]-2′,7-dione]

Further lines, the molecule ahead of its results:

SMILES | IC50 (CDK4-CYCLIND1; [1]) | IC50 (CDK6-CYCLIND3; [2]) | IC50 (CDK4-CYCLIND1; [3]) | IC50 (CDK6-CYCLIND3; [4])
CC(C)N1CCN(c2ccc(Nc3ncc4c(n3)N(C3CCCC3)C(=O)C3(CC(=O)N(C)C3=O)C4)cn2)CC1 (stereo not shown) [Example D26, 8-cyclopentyl-2-((6-(4-isopropylpiperazin-1-yl)pyridin-3-yl)amino)-1′-methyl-5,8-dihydro-7H-spiro[pyrido[2,3-d]pyrimidine-6,3′-pyrrolidine]-2′,5′,7-trione] | 105 nM | 311 nM |  | 
CN1C(=O)CC2(Cc3cnc(Nc4ccc(N5CCNCC5)c(F)c4)nc3N(C3CCCC3)C2=O)C1=O (stereo not shown) [Example D27, 8-cyclopentyl-2-((3-fluoro-4-(piperazin-1-yl)phenyl)amino)-1′-methyl-5,8-dihydro-7H-spiro[pyrido[2,3-d]pyrimidine-6,3′-pyrrolidine]-2′,5′,7-trione] | 34.8 nM | 141 nM |  | 
CN(C)CCOc1ccc(Nc2ncc3c(n2)N(C2CCCC2)C(=O)C2(CC(=O)N(C)C2=O)C3)cc1 (stereo not shown) [Example D28, 8-cyclopentyl-2-((4-(2-(dimethylamino)ethoxy)phenyl)amino)-1′-methyl-5,8-dihydro-7H-spiro[pyrido[2,3-d]pyrimidine-6,3′-pyrrolidine]-2′,5′,7-trione] | 155 nM | 491 nM |  | 
CN(C)CCOc1ccc(Nc2ncc3c(n2)N(C2CCCC2)C(=O)C2(CC(=O)N(C)C2=O)C3)cn1 (stereo not shown) [Example D29, 8-cyclopentyl-2-((6-(2-(dimethylamino)ethoxy)pyridin-3-yl)amino)-1′-methyl-5,8-dihydro-7H-spiro[pyrido[2,3-d]pyrimidine-6,3′-pyrrolidine]-2′,5′,7-trione] | 367 nM | 1050 nM |  | 
CN1C(=O)CC2(Cc3cnc(Nc4ccc(OCCN5CCCC5)c(F)c4)nc3N(C3CCCC3)C2=O)C1=O (stereo not shown) [Example D30, 8-cyclopentyl-2-((3-fluoro-4-(2-(pyrrolidin-1-yl)ethoxy)phenyl)amino)-1′-methyl-5,8-dihydro-7H-spiro[pyrido[2,3-d]pyrimidine-6,3′-pyrrolidine]-2′,5′,7-trione] | 472 nM | 1450 nM |  | 
CN1C(=O)CC2(Cc3cnc(Nc4ccc(OCCN5CCCC5)nc4)nc3N(C3CCCC3)C2=O)C1=O (stereo not shown) [Example D31, 8-cyclopentyl-1′-methyl-2-((6-(2-(pyrrolidin-1-yl)ethoxy)pyridin-3-yl)amino)-5,8-dihydro-7H-spiro[pyrido[2,3-d]pyrimidine-6,3′-pyrrolidine]-2′,5′,7-trione] | 185 nM | 628 nM |  | 
O=C1NCCC12Cc1cnc(Nc3ccc(N4CCNCC4)cc3F)nc1N(C1CCCC1)C2=O (stereo not shown) [Example D32, 8-cyclopentyl-2-((2-fluoro-4-(piperazin-1-yl)phenyl)amino)-5,8-dihydro-7H-spiro[pyrido[2,3-d]pyrimidine-6,3′-pyrrolidine]-2′,7-dione] | 5.16 nM | 11.2 nM |  | 
CC(C)N1CCN(c2ccc(Nc3ncc4c(n3)N(C3CCCC3)C(=O)C3(CCNC3=O)C4)c(F)c2)CC1 (stereo not shown) [Example D33, 8-cyclopentyl-2-((2-fluoro-4-(4-isopropylpiperazin-1-yl)phenyl)amino)-5,8-dihydro-7H-spiro[pyrido[2,3-d]pyrimidine-6,3′-pyrrolidine]-2′,7-dione] | 9340 nM | 22600 nM |  | 
O=C1NCCC12Cc1cnc(Nc3ccc(OCCN4CCCCC4)cn3)nc1N(C1CCCC1)C2=O (stereo not shown) [Example D34, 8-cyclopentyl-2-((5-(2-(piperidin-1-yl)ethoxy)pyridin-2-yl)amino)-5,8-dihydro-7H-spiro[pyrido[2,3-d]pyrimidine-6,3′-pyrrolidine]-2′,7-dione] | 44.6 nM | 56.5 nM |  | 
COc1cc(Nc2ncc3c(n2)N(C2CCCC2)C(=O)C2(CCNC2=O)C3)ccc1N1CCN(C(C)C)CC1 (stereo not shown) [Example D37, 8-cyclopentyl-2-((4-(4-isopropylpiperazin-1-yl)-3-methoxyphenyl)amino)-5,8-dihydro-7H-spiro[pyrido[2,3-d]pyrimidine-6,3′-pyrrolidine]-2′,7-dione] | 3.18 nM | 8.12 nM |  | 
O=C1NCCC12Cc1cnc(Nc3ccc(N4CCC(N5CCOCC5)CC4)c(F)c3)nc1N(C1CCCC1)C2=O (stereo not shown) [Example D38, 8-cyclopentyl-2-((3-fluoro-4-(4-morpholinopiperidin-1-yl)phenyl)amino)-5,8-dihydro-7H-spiro[pyrido[2,3-d]pyrimidine-6,3′-pyrrolidine]-2′,7-dione] | 3.87 nM | 7.1 nM |  | 
O=C1NCCC12Cc1cnc(Nc3ccc(N4CCC(N5CCOCC5)CC4)cn3)nc1N(C1CCCC1)C2=O (stereo not shown) [Example D39, 8-cyclopentyl-2-((5-(4-morpholinopiperidin-1-yl)pyridin-2-yl)amino)-5,8-dihydro-7H-spiro[pyrido[2,3-d]pyrimidine-6,3′-pyrrolidine]-2′,7-dione] | 7.29 nM | 13.3 nM |  | 
